Patent US8809355B2, “GABAA receptor modulators” (Innovationspatent Sverige AB, priority 2008, dated 2014)

Key:
[1] = biological target: benzodiazepine receptor; experiment: Displacement of 3H-flumazenil in rat cortical tissue (receptor binding); conditions: for Ki: 3H-Flumazenil binding in vitro, rat cortical membranes, mean ± SD of three determinations
Procedure: Affinity of test substances for the benzodiazepine receptor was determined in vitro by displacement of ^3H-flumazenil in rat cortical tissue.

| Ki [1] | affinity for the BZD receptor (in words) ([1]; discussion of Table 1) | melting point | fold difference in potency among the ethylene linked compounds, thiophene over phenyl ([1]; ratio of Ki values, printed as 14a over 14b) | fold higher affinity of methylene linked thiophene compared to phenyl 16a ([1]; ratio of Ki values, vs 16a) | SMILES |
| --- | --- | --- | --- | --- | --- |
| > 30000 nM | low affinity | 164 °C | – | – | CCOC(=O)n1c(=S)[nH]c2ccc(C)cc2c1=O [Compound 3b, Ethyl 6-methyl-4-oxo-2-thioxo-1,4-dihydroquinazoline-3(2H)-carboxylate] |
| 0.24 ± 0.07 nM | – | 369 °C | – | – | Cc1ccc(-n2nc3c4cc(Br)ccc4[nH]c(=O)n3c2=O)cc1 [Compound 8a, 9-Bromo-2-(4-methylphenyl)-2,6-dihydro[1,2,4]triazolo[4,3-c]quinazoline-3,5-dione] |
| 0.47 ± 0.09 nM | – | 405 °C | – | – | O=c1[nH]c2ccc(Br)cc2c2nn(-c3ccccc3)c(=O)n12 [Compound 8b, 9-Bromo-2-phenyl-2,6-dihydro[1,2,4]triazolo[4,3-c]quinazoline-3,5-dione] |
| 0.6 ± 0.26 nM | – | 387 °C (dec.) | – | – | O=c1[nH]c2ccc(Br)cc2c2nn(-c3ccc(Cl)cc3)c(=O)n12 [Compound 8c, 9-Bromo-2-(4-chlorophenyl)-2,6-dihydro[1,2,4]triazolo[4,3-c]quinazoline-3,5-dione] |
| 0.2 ± 0.07 nM | – | 347 °C (dec.) | – | – | O=c1[nH]c2ccc(Br)cc2c2nn(-c3ccccc3F)c(=O)n12 [Compound 8d, 9-Bromo-2-(2-fluorophenyl)-2,6-dihydro[1,2,4]triazolo[4,3-c]quinazoline-3,5-dione] |
| 0.62 ± 0.13 nM | – | 330 °C (dec.) | – | – | Cc1ccc2[nH]c(=O)n3c(=O)n(-c4ccccc4)nc3c2c1 [Compound 8e, 9-Methyl-2-phenyl-2,6-dihydro[1,2,4]triazolo[4,3-c]quinazoline-3,5-dione] |
| 40 nM | – | > 300 °C (dec.) | – | – | Cc1ccc(-n2nc3c4cc(C#Cc5ccccc5)ccc4[nH]c(=O)n3c2=O)cc1 [Compound 13a, 2-(4-Methylphenyl)-9-phenylethynyl-2,6-dihydro[1,2,4]triazolo[4,3-c]-quinazoline-3,5-dione] |
| – | – | > 320 °C (dec.) | – | – | Cc1ccc(-n2nc3c4cc(C#Cc5ccsc5)ccc4[nH]c(=O)n3c2=O)cc1 [Compound 13b, 2-(4-Methylphenyl)-9-(3-thienylethynyl)-2,6-dihydro[1,2,4]triazolo[4,3-c]-quinazoline-3,5-dione] |
| – | – | 330 °C | – | – | Cc1ccc(-n2nc3c4cc(C#Cc5ccccn5)ccc4[nH]c(=O)n3c2=O)cc1 [Compound 13c, 2-(4-Methylphenyl)-9-(pyridin-2-ylethynyl)-2,6-dihydro[1,2,4]triazolo[4,3-c]-quinazoline-3,5-dione] |
| – | – | 339 °C | – | – | Cc1ccc(-n2nc3c4cc(C#Cc5cccnc5)ccc4[nH]c(=O)n3c2=O)cc1 [Compound 13d, 2-(4-Methylphenyl)-9-(pyridin-3-ylethynyl)-2,6-dihydro[1,2,4]triazolo[4,3-c]-quinazoline-3,5-dione] |
| – | – | 330 °C | – | – | Cc1ccc(-n2nc3c4cc(C#Cc5ccncc5)ccc4[nH]c(=O)n3c2=O)cc1 [Compound 13e, 2-(4-Methylphenyl)-9-(pyridin-4-ylethynyl)-2,6-dihydro[1,2,4]triazolo[4,3-c]-quinazoline-3,5-dione] |
| – | – | 216 °C | – | – | Cc1ccc(-n2nc3c4cc(C#Cc5ccc(Oc6ccccc6)cc5)ccc4[nH]c(=O)n3c2=O)cc1 [Compound 13f, 2-(4-Methylphenyl)-9-[(4-phenoxyphenyl)ethynyl]-2,6-dihydro[1,2,4]triazolo[4,3-c]-quinazoline-3,5-dione] |
| – | – | > 350 °C (dec.) | – | – | Cc1ccc(-n2nc3c4cc(C#Cc5ccc(-c6ccccc6)cc5)ccc4[nH]c(=O)n3c2=O)cc1 [Compound 13g, 9-(Biphen-4-ylethynyl)-2-(4-methylphenyl)-2,6-dihydro[1,2,4]triazolo[4,3-c]-quinazoline-3,5-dione] |
| – | – | 300 °C (dec.) | – | – | Cc1ccc(-n2nc3c4cc(C#Cc5cccc(O)c5)ccc4[nH]c(=O)n3c2=O)cc1 [Compound 13i, 9-(3-Hydroxyphenyl)ethynyl-2-(4-methylphenyl)-2,6-dihydro[1,2,4]triazolo[4,3-c]-quinazoline-3,5-dione] |
| 4 ± 1.2 nM | – | 303 °C | 4 fold | – | Cc1ccc(-n2nc3c4cc(CCc5ccccc5)ccc4[nH]c(=O)n3c2=O)cc1 [Compound 14a, 2-(4-Methylphenyl)-9-(2-phenylethyl)-2,6-dihydro[1,2,4]triazolo[4,3-c]-quinazoline-3,5-dione] |
| 0.94 ± 0.27 nM | – | 281 °C | – | – | Cc1ccc(-n2nc3c4cc(CCc5ccsc5)ccc4[nH]c(=O)n3c2=O)cc1 [Compound 14b, 2-(4-Methylphenyl)-9-[2-(3-thienyl)ethyl]-2,6-dihydro[1,2,4]triazolo[4,3-c]-quinazoline-3,5-dione] |
| 0.53 ± 0.11 nM | – | > 300 °C (dec.) | – | – | Cc1ccc(-n2nc3c4cc(CCc5ccccn5)ccc4[nH]c(=O)n3c2=O)cc1 [Compound 14c, 2-(4-Methylphenyl)-9-[2-(2-pyridyl)ethyl]-2,6-dihydro[1,2,4]triazolo[4,3-c]-quinazoline-3,5-dione] |
| 0.2 ± 0.04 nM | – | 292 °C | – | – | Cc1ccc(-n2nc3c4cc(CCc5cccnc5)ccc4[nH]c(=O)n3c2=O)cc1 [Compound 14d, 2-(4-Methylphenyl)-9-[2-(3-pyridyl)ethyl]-2,6-dihydro[1,2,4]triazolo[4,3-c]-quinazoline-3,5-dione] |
| 0.17 ± 0.03 nM | – | 294 °C | – | – | Cc1ccc(-n2nc3c4cc(CCc5ccncc5)ccc4[nH]c(=O)n3c2=O)cc1 [Compound 14e, 2-(4-Methylphenyl)-9-[2-(4-pyridyl)ethyl]-2,6-dihydro[1,2,4]triazolo[4,3-c]-quinazoline-3,5-dione] |
| 123 ± 12 nM | – | 213 °C | – | – | Cc1ccc(-n2nc3c4cc(CCc5ccc(Oc6ccccc6)cc5)ccc4[nH]c(=O)n3c2=O)cc1 [Compound 14f, 2-(4-Methylphenyl)-9-[2-(4-phenoxyphenyl)ethyl]-2,6-dihydro[1,2,4]triazolo[4,3-o]-quinazoline-3,5-dione] |
| 1570 ± 150 nM | – | 345 °C | – | – | Cc1ccc(-n2nc3c4cc(CCc5ccc(-c6ccccc6)cc5)ccc4[nH]c(=O)n3c2=O)cc1 [Compound 14g] |
| 6.2 nM | – | 300 °C (dec.) | – | – | Cc1ccc(-n2nc3c4cc(CCc5cccc(O)c5)ccc4[nH]c(=O)n3c2=O)cc1 [Compound 14i, 9-[2-(3-hydroxyphenyl)ethyl]-2-(4-Methylphenyl)-2,6-dihydro[1,2,4]triazolo[4,3-c]-quinazoline-3,5-dione] |
| ~1 nM | – | 299 °C | – | – | Cc1ccc(-n2nc3c4cc(Cc5ccccc5)ccc4[nH]c(=O)n3c2=O)cc1 [Compound 16a, 9-Benzyl-2-(4-methylphenyl)-2,6-dihydro[1,2,4]triazolo[4,3-c]quinazoline-3,5-dione] |
| 2.1 ± 0.3 nM | – | 324 °C | – | – | Cc1ccc(-n2nc3c4cc(Cc5cccc(F)c5)ccc4[nH]c(=O)n3c2=O)cc1 [Compound 16b, 9-(3-Fluorobenzyl)-2-(4-methylphenyl)-2,6-dihydro[1,2,4]triazolo[4,3-c]quinazoline-3,5-dione] |
| 0.23 ± 0.18 nM | – | 287 °C | – | 5 fold | Cc1ccc(-n2nc3c4cc(Cc5ccsc5)ccc4[nH]c(=O)n3c2=O)cc1 [Compound 16c, 2-(4-Methylphenyl)-9-(3-thienylmethyl)-2,6-dihydro[1,2,4]triazolo[4,3-c]quinazoline-3,5-dione] |
| – | – | 242 °C | – | – | Cc1ccc(-n2nc3c4cc(/C=C/C(=O)OCc5ccccc5)ccc4[nH]c(=O)n3c2=O)cc1 [Compound 17, Benzyl (2E)-3-[2-(4-methylphenyl)-3,5-dioxo-2,6-dihydro[1,2,4]triazolo[4,3-c]quinazolin-9-yl]acrylate] |
| 1.4 nM | – | 275 °C | – | – | Cc1ccc(-n2nc3c4cc(CCC(=O)O)ccc4[nH]c(=O)n3c2=O)cc1 [Compound 18, 3-[2-(4-Methylphenyl)-3,5-dioxo-2,6-dihydro[1,2,4]triazolo[4,3-c]quinazolin-9-yl]propanoic acid] |
